Laboratory results taken from ChEMBL document CHEMBL3871268, “Chalcogen containing heterocyclic scaffolds: New hybrids with antitumoral activity” (Eur J Med Chem, 2016).
Residues, ends and D or L forms follow the SMILES beside them. *: point of attachment. Cbz = O=C(OCc1ccccc1)*; CH2F = FC*

Tests used:
[1] = Cytotoxicity against human MCF7 cells assessed as reduction in cell viability measured after 72 hrs by MTT assay; assay type: functional; settings: MCF7, 72 h
MCF7 = test: Selectivity index, ratio of GI50 for human 184B5 cells to GI50 for human MCF7 cells; assay type: functional
[2] = Cytotoxicity against human 184B5 cells assessed as reduction in cell viability measured after 72 hrs by MTT assay; assay type: toxicity, cell-based; settings: for GI50 at 72 h: 184B5 cells; for LC50 / TGI: 184b5, 72 h
[3] = Cytotoxicity against human PC3 cells assessed as reduction in cell viability measured after 72 hrs by MTT assay; assay type: functional; settings: PC-3, 72 h
[4] = Cell cycle arrest in human MCF7 cells assessed as sub-diploid cells at 50 uM pretreated with pan-caspase inhibitor Z-VAD-FMK for 1 hr followed by compound addition measured after 48 hrs by propidium iodide staining-based flow cytometry assay (reference value: 1.9%); assay type: functional; set-up: scale not given: the % may be the effect or the level left
[5] = Cell cycle arrest in human MCF7 cells assessed as M1 quadrant cells at 50 uM pretreated with pan-caspase inhibitor Z-VAD-FMK for 1 hr followed by compound addition measured after 48 hrs by propidium iodide staining-based flow cytometry assay (reference value: 98.1%); assay type: functional; set-up: scale not given: the % may be the effect or the level left
[6] = Cell cycle analysis in human MCF7 cells assessed as accumulation at S phase at 6 uM measured after 24 hrs by propidium iodide staining-based flow cytometry (reference value: 15.3%); assay type: functional
[7] = Cell cycle analysis in human MCF7 cells assessed as accumulation at SubG1 phase at 6 uM measured after 24 hrs by propidium iodide staining-based flow cytometry (reference value: 2.6%); assay type: functional
[8] = Cell cycle analysis in human MCF7 cells assessed as accumulation at G0/G1 phase at 6 uM measured after 24 hrs by propidium iodide staining-based flow cytometry (reference value: 73.6%); assay type: functional
[9] = Cell cycle analysis in human MCF7 cells assessed as accumulation at G2/M phase at 6 uM measured after 24 hrs by propidium iodide staining-based flow cytometry (reference value: 8.9%); assay type: functional

| SMILES | GI50 [1] | LC50 [1] | TGI [1] | RatioGI50 (MCF7) | GI50 at 72 h [2] | LC50 [2] | TGI [2] | GI50 [3] | LC50 (concentration lethal to 50% of cells) [3] | TGI [3] | Activity [4] | Activity [5] | Activity [6] | Activity [7] | Activity [8] | Activity [9] |
| --- | --- | --- | --- | --- | --- | --- | --- | --- | --- | --- | --- | --- | --- | --- | --- | --- |
| N#CSCc1ccc(-n2cccc2)cc1 | 8.2 µM | > 100 µM | 36.9 µM | 1.6 | 12.9 µM | > 100 µM | 23.5 µM | 14.1 µM | 88.1 µM | 60.3 µM |  |  |  |  |  |  |
| N#CSCN1C(=O)c2ccccc2C1=O | 48.1 µM | > 100 µM | > 100 µM |  |  |  |  | > 100 µM | > 100 µM | > 100 µM |  |  |  |  |  |  |
| C[Se]c1ccc2ccccc2n1 | 21 µM | > 100 µM | > 100 µM |  |  |  |  | 83.6 µM | > 100 µM | > 100 µM |  |  |  |  |  |  |
| N#CSc1nccc(Cl)n1 | 35 µM | > 100 µM | > 100 µM |  |  |  |  | > 100 µM | > 100 µM | > 100 µM |  |  |  |  |  |  |
| N#CSCc1cc2c(cc1Br)OCO2 | 6.7 µM | > 100 µM | > 100 µM | >14.9 | > 100 µM | > 100 µM | > 100 µM | 23.8 µM | 74.2 µM | 41.8 µM |  |  |  |  |  |  |
| SCc1cc2c(cc1Br)OCO2 | 3.2 µM | > 100 µM | > 100 µM | >37 | > 100 µM | > 100 µM | > 100 µM | 87.5 µM | > 100 µM | > 100 µM |  |  |  |  |  |  |
| O=C1c2ccccc2C(=O)N1CS | > 100 µM | > 100 µM | > 100 µM |  |  |  |  | 74.7 µM | > 100 µM | > 100 µM |  |  |  |  |  |  |
| [SeH]c1ccnc([SeH])n1 | 6.7 µM | 75.4 µM | 40 µM | 1.6 | 10.7 µM | 63.7 µM | 35.3 µM | 9.8 µM | 51.3 µM | 28.3 µM |  |  |  |  |  |  |
| N#C[Se]Cc1cc2c(cc1Br)OCO2 | 66.9 µM | > 100 µM | > 100 µM |  |  |  |  | 24 µM | > 100 µM | 45.7 µM |  |  |  |  |  |  |
| CSc1ccnc(SC)n1 | > 100 µM | > 100 µM | > 100 µM |  |  |  |  | 77.5 µM | > 100 µM | > 100 µM |  |  |  |  |  |  |
| [SeH]c1nc2ccccc2s1 | > 50 µM | > 50 µM | > 50 µM |  |  |  |  | > 50 µM | > 50 µM | > 50 µM |  |  |  |  |  |  |
| N#CSCc1c2ccccc2nc2ccccc12 | 0.9 µM | 34.4 µM | 17.5 µM | 16 | 14.4 µM | 38.5 µM | 26.4 µM | 1.5 µM | 28.3 µM | 2.4 µM |  |  |  |  |  |  |
| CC(C)[C@H](NC(=O)OCc1ccccc1)C(=O)N[C@@H](C)C(=O)N[C@@H](CC(=O)O)C(=O)CF (Cbz-Val-Ala-Asp-CH2F) |  |  |  |  |  |  |  |  |  |  | 3.9% | 96.1% |  |  |  |  |
| O=C1c2ccccc2C(=O)N1C[SeH] | 6 µM | 12.5 µM | 8.2 µM | 2.1 | 12.7 µM | 21.9 µM | 17.4 µM | 6.4 µM | 16.9 µM | 9.4 µM |  |  |  |  |  |  |
| Sc1ccc2ccccc2n1 | > 100 µM | > 100 µM | > 100 µM |  |  |  |  | 85.3 µM | > 100 µM | > 100 µM |  |  |  |  |  |  |
| CSc1ccc2ccccc2n1 | > 100 µM | > 100 µM | > 100 µM |  | > 100 µM | > 100 µM | > 100 µM | 87 µM | > 100 µM | > 100 µM |  |  |  |  |  |  |
| N#CSc1nc2ccccc2s1 | 40.1 µM | 87.7 µM | 67.6 µM |  |  |  |  | 42 µM | 85.5 µM | 66.3 µM |  |  |  |  |  |  |
| Sc1nc2ccccc2s1 [2-MERCAPTOBENZOTHIAZOLE] | > 100 µM |  | > 100 µM |  |  |  |  | 84.9 µM |  | > 100 µM |  |  |  |  |  |  |
| [SeH]Cc1c2ccccc2nc2ccccc12 | 39.1 µM | > 100 µM | > 100 µM |  |  |  |  | 83.2 µM | > 100 µM | > 100 µM |  |  |  |  |  |  |
| [SeH]Cc1cc2c(cc1Br)OCO2 | 22.2 µM | > 50 µM | > 50 µM |  |  |  |  | 34.6 µM | > 50 µM | > 50 µM |  |  |  |  |  |  |
| CSc1nc2ccccc2s1 |  |  |  |  |  |  |  | 39.6 µM |  |  |  |  |  |  |  |  |
| Sc1ccnc(S)n1 | > 100 µM | > 100 µM | > 100 µM |  |  |  |  | 82.5 µM | > 100 µM | > 100 µM |  |  |  |  |  |  |
| Cc1noc(C)c1C[Se]C#N | 2.2 µM | 24.5 µM | 8.3 µM | <1 | 2 µM | 22.8 µM | 4 µM | 5.6 µM | 17.6 µM | 10.3 µM |  |  |  |  |  |  |
| C[Se](=O)O | 1.3 µM | > 100 µM | 3.4 µM | 1.4 | 1.8 µM | > 100 µM | 3.8 µM | 2.5 µM | 37.1 µM | 8.4 µM |  |  |  |  |  |  |
| N#C[Se]Cc1c2ccccc2nc2ccccc12 | 40.1 µM | 44.5 µM | 67.6 µM |  |  |  |  | 16.6 µM | 40 µM | 28.3 µM |  |  |  |  |  |  |
| C[Se]c1nc2ccccc2s1 | 7.2 µM | > 100 µM | > 100 µM | >13.9 | > 100 µM | > 100 µM | > 100 µM | > 100 µM | > 100 µM | > 100 µM |  |  |  |  |  |  |
| N#C[Se]CN1C(=O)c2ccccc2C1=O | 15.4 µM | 93.4 µM | 56.1 µM |  |  |  |  | 11.2 µM | 56.7 µM | 32.1 µM |  |  |  |  |  |  |
| CC[C@@]1(O)C(=O)OCc2c1cc1n(c2=O)Cc2cc3ccccc3nc2-1 |  |  |  |  |  |  |  |  |  |  |  |  | 16.3% | 4.4% | 54.6% | 25.8% |
